In US8106048B2, “Heterocyclic NF-κB inhibitors” (4SC AG, priority 2004, dated 2012):

system: A549-NF-κB-SEAP reporter cells; test: Inhibition of NF-κB-induced inflammation: […] NINA Instant Assay, TNF-α stimulated SEAP reporter; assay type: cell-based; conditions: % inhibition classes
How it was run: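 A549 cells carrying an NF-κB-driven SEAP reporter were pretreated with compound (0.01–100 μM) for 4.5 h, then stimulated with 2 ng/ml TNF-α for 22 h. After inactivation of endogenous phosphatases, SEAP activity was read by CSPD chemiluminescence (40 min). EC50 values were fitted from quadruplicate data points.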

| SMILES | Biological activity (inhibition in the NF-κB inflammation assay) |
| --- | --- |
| O=C(NCC1CCN(c2nc(C(=O)N3CCN(c4cccc(C(F)(F)F)c4)CC3)cs2)CC1)c1ccccc1OC(F)(F)F [compound 101] | + (“+” stands for 50-80% inhibition) |
| COc1nc(OC)nc(N2CCN(C(=O)c3csc(C4CCN(Cc5ccccc5)CC4)n3)CC2)n1 [compound 120] | + (“+” stands for 50-80% inhibition) |
| O=C(c1csc(C2CCN(Cc3ccc(F)cc3)CC2)n1)N1CCN(c2cccc(C(F)(F)F)c2)CC1 [compound 170] | + (“+” stands for 50-80% inhibition) |
| Cc1cc2nc(NC(=O)c3csc(C4CCNCC4)n3)[nH]c2cc1C [compound 144] | + (“+” stands for 50-80% inhibition) |
| O=C(c1csc(C2CCN(S(=O)(=O)c3cc(C(F)(F)F)cc(C(F)(F)F)c3)CC2)n1)N1CCN(c2cccc(C(F)(F)F)c2)CC1 [compound 201] | ++ (“++” means 80-90%) |
| Cc1cc(NC(=O)N2CCC(c3nc(C(=O)N4CCN(c5cccc(C(F)(F)F)c5)CC4)cs3)CC2)c(C(F)(F)F)o1 [compound 76] | ++ (“++” means 80-90%) |
| Cc1cc2nc(NC(=O)Cc3nc(C4CCN(C(=O)c5ccccc5OC(F)(F)F)CC4)sc3C)[nH]c2cc1C [compound 106] | + (“+” stands for 50-80% inhibition) |
| O=C(c1csc(C2CCN(C(=O)c3ccccc3OC(F)(F)F)CC2)n1)N(CCc1ccccc1)Cc1ccccc1 [compound 149] | + (“+” stands for 50-80% inhibition) |
| O=C(O)c1cc(Cl)c(Cl)cc1C(=O)N1CCC(c2nc(C(=O)N3CCN(c4cccc(C(F)(F)F)c4)CC3)cs2)CC1 [compound 187] | + (“+” stands for 50-80% inhibition) |
| O=C(c1ccc(C(F)(F)F)c(F)c1)N1CCN(c2nc(C(=O)N3CCN(c4cccc(C(F)(F)F)c4)CC3)cs2)CC1 [compound 60] | +++ (“+++” stands for 90-100% inhibition) |
| O=C(CCC1CCCC1)N1CCC(c2nc(C(=O)N3CCN(c4cccc(C(F)(F)F)c4)CC3)cs2)CC1 [compound 224] | + (“+” stands for 50-80% inhibition) |
| O=C(c1csc(C2CCN(C(=O)c3cc4ccccc4s3)CC2)n1)N1CCN(c2cccc(C(F)(F)F)c2)CC1 [compound 213] | ++ (“++” means 80-90%) |
| O=C(c1csc(C2CCN(Cc3ccccc3OC(F)(F)F)CC2)n1)N1CCN(c2cccc(C(F)(F)F)c2)CC1 [compound 109] | + (“+” stands for 50-80% inhibition) |
| O=C(O)c1ccc(C(=O)O)c(C(=O)N2CCC(c3nc(C(=O)N4CCN(c5cccc(C(F)(F)F)c5)CC4)cs3)CC2)c1 [compound 184] | + (“+” stands for 50-80% inhibition) |
| COc1ccccc1C(=O)N1CCN(c2nc(C(=O)N3CCN(c4cccc(C(F)(F)F)c4)CC3)cs2)CC1 [compound 38] | +++ (“+++” stands for 90-100% inhibition) |
| O=C(c1csc(C2CCN(C(=O)c3ccccc3OC(F)(F)F)CC2)n1)N1CCN(c2nc3ccccc3n2Cc2ccc(F)cc2)CC1 [compound 48] | +++ (“+++” stands for 90-100% inhibition) |
| COc1cc2c(cc1OC)CN(C(=O)c1csc(C3CCN(C(=O)Cc4ccc(F)cc4)CC3)n1)CC2 [compound 161] | + (“+” stands for 50-80% inhibition) |
| O=C(c1csc(C2CCN(S(=O)(=O)Cc3ccccc3)CC2)n1)N1CCN(c2cccc(C(F)(F)F)c2)CC1 [compound 198] | + (“+” stands for 50-80% inhibition) |
| CSc1nccc(N2CCN(C(=O)c3csc(C4CCN(C(=O)c5ccccc5OC(F)(F)F)CC4)n3)CC2)n1 [compound 124] | + (“+” stands for 50-80% inhibition) |
| O=C(c1csc(C2CCN(S(=O)(=O)c3ccc(Br)cc3)CC2)n1)N1CCN(c2cccc(C(F)(F)F)c2)CC1 [compound 199] | + (“+” stands for 50-80% inhibition) |
| COc1cccc(CN2CCC(c3nc(C(=O)N4CCN(c5cccc(C(F)(F)F)c5)CC4)cs3)CC2)c1 [compound 173] | + (“+” stands for 50-80% inhibition) |
| CC(C)NC(=O)N1CCC(c2nc(C(=O)N3CCN(c4cccc(C(F)(F)F)c4)CC3)cs2)CC1 [compound 78] | + (“+” stands for 50-80% inhibition) |
| Cc1noc(C)c1C(=O)N1CCC(c2nc(C(=O)N3CCN(c4cccc(C(F)(F)F)c4)CC3)cs2)CC1 [compound 219] | + (“+” stands for 50-80% inhibition) |

| SMILES | Biological activity (inhibition in the NF-κB inflammation assay) |
| --- | --- |
| O=C(c1csc(C2CCN(c3ccc4c(c3)OCCO4)CC2)n1)N1CCN(c2cccc(C(F)(F)F)c2)CC1 [compound 157] | + (“+” stands for 50-80% inhibition) |
| COc1cc2c(cc1OC)CN(C(=O)c1csc(C3CCN(C(=O)Cc4ccc(F)cc4)CC3)n1)C(C)C2 (stereo not shown) [compound 232] | + (“+” stands for 50-80% inhibition) |
| O=C(c1csc(C2CCN(Cc3c(F)cccc3F)CC2)n1)N1CCN(c2cccc(C(F)(F)F)c2)CC1 [compound 168] | + (“+” stands for 50-80% inhibition) |
| COc1nc(OC)nc(N2CCN(C(=O)c3csc(C4CCN(C(=O)c5ccccc5OC(F)(F)F)CC4)n3)CC2)n1 [compound 127] | + (“+” stands for 50-80% inhibition) |
| N#Cc1ccc(CN2CCN(c3nc(C(=O)N4CCN(c5cccc(C(F)(F)F)c5)CC4)cs3)CC2)cc1 [compound 62] | +++ (“+++” stands for 90-100% inhibition) |
| O=C(c1csc(C2CCN(Cc3ccccc3Br)CC2)n1)N1CCN(c2cccc(C(F)(F)F)c2)CC1 [compound 165] | + (“+” stands for 50-80% inhibition) |
| COc1nc(OC)nc(N2CCN(C(=O)c3csc(C4CCN(Cc5ccc(Br)cc5)CC4)n3)CC2)n1 [compound 121] | + (“+” stands for 50-80% inhibition) |
| COc1nc(OC)nc(N2CCN(C(=O)c3csc(C4CCNCC4)n3)CC2)n1 [compound 152] | ++ (“++” means 80-90%) |
| COc1cc(N2CCN(C(=O)c3csc(C4CCN(C(=O)c5ccccc5OC(F)(F)F)CC4)n3)CC2)nc(OC)n1 [compound 130] | + (“+” stands for 50-80% inhibition) |
| O=C(Nc1nc(C(=O)N2CCN(c3cccc(C(F)(F)F)c3)CC2)cs1)Nc1ccccc1OC(F)(F)F [compound 55] | +++ (“+++” stands for 90-100% inhibition) |
| O=C(O)N1CCC(c2nc(C(=O)N3CCN(c4cccc(C(F)(F)F)c4)CC3)cs2)CC1 [compound 113] | + (“+” stands for 50-80% inhibition) |
| Cc1cc(NC(=O)N2CCC(c3nc(C(=O)N4CCN(c5cccc(C(F)(F)F)c5)CC4)cs3)CC2)c(C(F)(F)F)o1 [compound 137] | + (“+” stands for 50-80% inhibition) |
| Cc1cc2nc(NC(=O)c3csc(C4CCN(C(=O)Cc5ccc(F)cc5)CC4)n3)[nH]c2cc1C [compound 131] | + (“+” stands for 50-80% inhibition) |
| CN(C)c1nc(NC(=O)c2csc(C3CCN(C(=O)c4ccccc4OC(F)(F)F)CC3)n2)cc(=O)[nH]1 [compound 85] | + (“+” stands for 50-80% inhibition) |
| O=C(c1csc(C2CCN(C(=O)C3COc4ccccc4O3)CC2)n1)N1CCN(c2cccc(C(F)(F)F)c2)CC1 (stereo not shown) [compound 217] | +++ (“+++” stands for 90-100% inhibition) |
| CC(C)(C)OC(=O)N1CCN(c2nc(C(=O)N3CCN(c4cccc(C(F)(F)F)c4)CC3)cs2)CC1 [compound 63] | ++ (“++” means 80-90%) |
| O=C(c1csc(C2CCN(S(=O)(=O)c3c(Cl)nc4sccn34)CC2)n1)N1CCN(c2cccc(C(F)(F)F)c2)CC1 [compound 197] | + (“+” stands for 50-80% inhibition) |
| CCCCN1CCN(C(=O)c2csc(C3CCN(C(=O)Cc4ccc(F)cc4)CC3)n2)CC1 [compound 231] | + (“+” stands for 50-80% inhibition) |
| O=C(c1csc(C2CCN(Cc3ccc(OC(F)(F)F)cc3)CC2)n1)N1CCN(c2cccc(C(F)(F)F)c2)CC1 [compound 172] | + (“+” stands for 50-80% inhibition) |
| O=C(Nc1cc(F)cc2c1OCCO2)N1CCC(c2nc(C(=O)N3CCN(c4cccc(C(F)(F)F)c4)CC3)cs2)CC1 [compound 74] | ++ (“++” means 80-90%) |
| CNc1ccc(Cl)cc1C1c2ccccc2CCN1C(=O)c1csc(C2CCN(C(=O)c3ccccc3OC(F)(F)F)CC2)n1 (stereo not shown) [compound 150] | ++ (“++” means 80-90%) |
| O=C(c1ccc2nccnc2c1)N1CCC(c2nc(C(=O)N3CCN(c4cccc(C(F)(F)F)c4)CC3)cs2)CC1 [compound 211] | + (“+” stands for 50-80% inhibition) |

same assay, conditions: inhibition classes

| SMILES | Biological activity (inhibition in the NF-κB inflammation assay) |
| --- | --- |
| O=C(Cc1ccc(F)cc1)N1CCC(c2nc(C(=O)N3CCN(c4cccc(Cl)c4)CC3)cs2)CC1 [compound 238] | + (“+” stands for 50-80% inhibition) |
